According to paper PMC8231556, “Inhibiting Endothelial Cell Function in Normal and Tumor Angiogenesis Using BMP Type I Receptor Macrocyclic Kinase Inhibitors” (Cancers, 2021):

Test system: HUVECs
Test: Cord formation assay, HUVEC-eGFP co-cultured with human dermal fibroblasts
Assay type: cell-based
Details: VEGF 15 ng/mL, 6 days; 0.5 µM (Sunitinib 1 μM)
Procedure: The cord formation assay was performed according to the IncuCyte Angiogenesis PrimeKit Assay protocol (Cell Player Angiogenesis PrimeKit, Essen BioScience). In brief, GFP labeled HUVEC cells and human dermal fibroblasts were mixed in a 1:20 ratio and seeded per well in a 96-well plate (3150 cells in total). Thereafter, the cells were exposed to VEGF alone or in combination with the compounds (at indicated concentrations) in a complete assay medium. Pictures were captured every 6 h for up to 9 days To monitor the cord formation. The medium was refreshed every 2 or 3 days. Cords formation was visualized by the GFP fluorescence, and cord length was quantified with the instrument’s software. All the experiments were repeated at least three times, and representative experiments are shown.

Q: For CCN(CC)CCNC(=O)c1c(C)[nH]c(/C=C2\C(=O)Nc3ccc(F)cc32)c1C [Sunitinib, reference compound], which “effect on VEGF-induced EC cord formation” value is on record?
A: strongly suppressed
